Results: ChEMBL document CHEMBL1681705, “Optimisation of ITK inhibitors through successive iterative design cycles” (Bioorg Med Chem Lett, 2011)

How the values were obtained:
[1] = target: MAP kinase-activated protein kinase 2 (Homo sapiens) (UniProt P49137); assay: Inhibition of MAPKAP-K2 at 1 uM
[2] = target: High affinity nerve growth factor receptor (Homo sapiens) (UniProt P04629); assay: Inhibition of TrkA at 1 uM; values are per cent of control
[3] = Inhibition of PKA at 0.1 uM; values are per cent of control
[4] = target: T1, Activin receptor type-1B (Homo sapiens) (UniProt P36896); assay: Inhibition of ALK4 at 0.1 uM; values are per cent of control
T1 sequence (whole entry): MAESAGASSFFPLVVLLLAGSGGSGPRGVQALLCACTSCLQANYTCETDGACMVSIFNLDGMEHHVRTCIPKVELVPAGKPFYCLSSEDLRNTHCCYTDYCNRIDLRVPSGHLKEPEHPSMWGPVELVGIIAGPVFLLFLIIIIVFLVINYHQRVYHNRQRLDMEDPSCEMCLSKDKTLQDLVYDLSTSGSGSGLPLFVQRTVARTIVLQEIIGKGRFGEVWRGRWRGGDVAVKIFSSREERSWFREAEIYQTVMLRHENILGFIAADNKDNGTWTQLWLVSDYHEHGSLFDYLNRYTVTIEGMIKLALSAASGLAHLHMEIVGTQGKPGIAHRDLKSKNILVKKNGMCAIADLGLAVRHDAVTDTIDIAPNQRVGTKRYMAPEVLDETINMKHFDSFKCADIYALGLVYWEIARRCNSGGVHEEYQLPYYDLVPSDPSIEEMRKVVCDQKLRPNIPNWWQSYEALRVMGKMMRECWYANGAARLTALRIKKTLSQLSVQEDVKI

[5] = target: Tyrosine-protein kinase JAK2 (Homo sapiens) (UniProt O60674); assay: Inhibition of JAK2 at 0.1 uM; values are per cent of control
[6] = target: T2, Serine/threonine-protein kinase Nek2 (Homo sapiens) (UniProt P51955); assay: Inhibition of NEK2 at 0.1 uM; values are per cent of control
T2 sequence (whole entry): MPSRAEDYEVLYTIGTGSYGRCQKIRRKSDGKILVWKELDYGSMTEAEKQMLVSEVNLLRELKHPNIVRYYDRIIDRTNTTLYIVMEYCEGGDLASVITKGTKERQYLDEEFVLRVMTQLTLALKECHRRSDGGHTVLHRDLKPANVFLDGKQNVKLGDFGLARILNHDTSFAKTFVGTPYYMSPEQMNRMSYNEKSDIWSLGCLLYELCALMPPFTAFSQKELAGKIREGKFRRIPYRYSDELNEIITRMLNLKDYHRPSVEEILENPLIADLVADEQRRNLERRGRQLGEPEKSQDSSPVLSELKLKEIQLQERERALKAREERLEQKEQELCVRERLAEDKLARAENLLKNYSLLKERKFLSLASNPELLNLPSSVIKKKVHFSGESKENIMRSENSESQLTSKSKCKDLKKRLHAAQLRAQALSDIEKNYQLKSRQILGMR

[7] = target: Ephrin type-A receptor 2 (Homo sapiens) (UniProt P29317); assay: Inhibition of EphA2 at 0.1 uM; values are per cent of control
[8] = target: Ephrin type-A receptor 5 (Homo sapiens) (UniProt P54756); assay: Inhibition of EphA5 at 0.1 uM; values are per cent of control
[9] = target: T3, Interleukin-1 receptor-associated kinase 4 (Homo sapiens) (UniProt Q9NWZ3); assay: Inhibition of IRAK4 at 0.1 uM; values are per cent of control
T3 sequence (whole entry): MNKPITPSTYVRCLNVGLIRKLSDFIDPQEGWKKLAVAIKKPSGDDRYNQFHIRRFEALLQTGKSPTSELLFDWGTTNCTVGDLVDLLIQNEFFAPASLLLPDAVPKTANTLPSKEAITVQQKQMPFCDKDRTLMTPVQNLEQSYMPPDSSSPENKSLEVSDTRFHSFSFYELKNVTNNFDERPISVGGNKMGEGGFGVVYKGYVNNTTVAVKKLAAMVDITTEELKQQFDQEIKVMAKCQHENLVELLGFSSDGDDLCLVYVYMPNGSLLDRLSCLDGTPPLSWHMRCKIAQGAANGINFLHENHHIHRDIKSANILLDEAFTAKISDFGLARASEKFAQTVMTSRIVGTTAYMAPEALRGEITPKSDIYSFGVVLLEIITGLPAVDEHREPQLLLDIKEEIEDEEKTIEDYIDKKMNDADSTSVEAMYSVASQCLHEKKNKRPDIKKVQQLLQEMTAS

[10] = target: T4, Aurora kinase A (Homo sapiens) (UniProt O14965); assay: Inhibition of aurora-A at 0.1 uM; values are per cent of control
T4 sequence (whole entry): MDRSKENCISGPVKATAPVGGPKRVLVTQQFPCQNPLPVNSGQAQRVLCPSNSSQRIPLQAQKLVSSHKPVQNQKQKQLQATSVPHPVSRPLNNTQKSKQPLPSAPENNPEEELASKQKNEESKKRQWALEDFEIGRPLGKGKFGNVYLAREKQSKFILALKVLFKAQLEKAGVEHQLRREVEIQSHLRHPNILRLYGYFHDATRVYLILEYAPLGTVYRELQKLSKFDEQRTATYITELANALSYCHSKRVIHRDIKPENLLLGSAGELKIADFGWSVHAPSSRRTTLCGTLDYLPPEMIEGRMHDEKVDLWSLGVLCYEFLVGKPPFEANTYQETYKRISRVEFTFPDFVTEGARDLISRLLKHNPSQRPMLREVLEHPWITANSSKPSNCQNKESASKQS

Chain of Tyrosine-protein kinase JAK2 (Homo sapiens) (O60674 whole entry): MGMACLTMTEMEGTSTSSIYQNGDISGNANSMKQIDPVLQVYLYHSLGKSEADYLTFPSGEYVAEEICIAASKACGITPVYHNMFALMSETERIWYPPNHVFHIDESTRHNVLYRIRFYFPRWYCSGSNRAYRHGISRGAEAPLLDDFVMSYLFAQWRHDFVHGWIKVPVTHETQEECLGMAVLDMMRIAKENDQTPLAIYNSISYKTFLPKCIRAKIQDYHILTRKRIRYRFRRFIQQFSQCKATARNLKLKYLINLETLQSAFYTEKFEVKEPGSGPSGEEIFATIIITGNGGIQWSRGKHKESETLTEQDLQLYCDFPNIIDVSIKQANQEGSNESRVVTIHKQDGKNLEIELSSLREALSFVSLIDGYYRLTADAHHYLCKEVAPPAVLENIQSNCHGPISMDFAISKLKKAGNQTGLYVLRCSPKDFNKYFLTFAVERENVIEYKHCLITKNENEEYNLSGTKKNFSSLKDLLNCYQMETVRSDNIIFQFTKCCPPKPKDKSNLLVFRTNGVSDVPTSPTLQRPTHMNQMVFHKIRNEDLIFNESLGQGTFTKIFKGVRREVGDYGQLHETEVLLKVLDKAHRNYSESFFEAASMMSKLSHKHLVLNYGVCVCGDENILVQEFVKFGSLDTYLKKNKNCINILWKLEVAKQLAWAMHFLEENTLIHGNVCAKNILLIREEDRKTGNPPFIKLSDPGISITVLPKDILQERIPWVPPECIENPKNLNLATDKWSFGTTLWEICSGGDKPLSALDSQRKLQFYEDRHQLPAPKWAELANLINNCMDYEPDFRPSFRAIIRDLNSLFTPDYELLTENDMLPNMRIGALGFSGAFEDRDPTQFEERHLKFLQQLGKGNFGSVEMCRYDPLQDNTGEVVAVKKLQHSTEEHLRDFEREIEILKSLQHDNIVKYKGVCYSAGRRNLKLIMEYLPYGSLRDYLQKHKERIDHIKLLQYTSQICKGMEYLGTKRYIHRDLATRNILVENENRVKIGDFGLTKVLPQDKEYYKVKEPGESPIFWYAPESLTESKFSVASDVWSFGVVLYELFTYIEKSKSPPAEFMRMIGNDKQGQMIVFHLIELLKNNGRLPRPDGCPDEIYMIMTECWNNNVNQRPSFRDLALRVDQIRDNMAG
Chain of MAP kinase-activated protein kinase 2 (Homo sapiens) (P49137 whole entry, looked up): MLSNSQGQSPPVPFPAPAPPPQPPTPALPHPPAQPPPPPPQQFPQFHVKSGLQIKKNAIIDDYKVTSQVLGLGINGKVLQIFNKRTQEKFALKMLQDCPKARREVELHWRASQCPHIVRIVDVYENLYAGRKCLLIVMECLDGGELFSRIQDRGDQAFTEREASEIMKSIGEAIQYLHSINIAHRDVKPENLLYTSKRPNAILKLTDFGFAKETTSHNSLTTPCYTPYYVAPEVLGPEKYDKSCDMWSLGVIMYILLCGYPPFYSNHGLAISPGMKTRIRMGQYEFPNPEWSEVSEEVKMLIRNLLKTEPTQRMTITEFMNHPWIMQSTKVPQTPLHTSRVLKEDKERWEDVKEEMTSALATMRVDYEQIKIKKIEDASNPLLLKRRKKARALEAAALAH
Chain of High affinity nerve growth factor receptor (Homo sapiens) (P04629 33-796 limits assumed): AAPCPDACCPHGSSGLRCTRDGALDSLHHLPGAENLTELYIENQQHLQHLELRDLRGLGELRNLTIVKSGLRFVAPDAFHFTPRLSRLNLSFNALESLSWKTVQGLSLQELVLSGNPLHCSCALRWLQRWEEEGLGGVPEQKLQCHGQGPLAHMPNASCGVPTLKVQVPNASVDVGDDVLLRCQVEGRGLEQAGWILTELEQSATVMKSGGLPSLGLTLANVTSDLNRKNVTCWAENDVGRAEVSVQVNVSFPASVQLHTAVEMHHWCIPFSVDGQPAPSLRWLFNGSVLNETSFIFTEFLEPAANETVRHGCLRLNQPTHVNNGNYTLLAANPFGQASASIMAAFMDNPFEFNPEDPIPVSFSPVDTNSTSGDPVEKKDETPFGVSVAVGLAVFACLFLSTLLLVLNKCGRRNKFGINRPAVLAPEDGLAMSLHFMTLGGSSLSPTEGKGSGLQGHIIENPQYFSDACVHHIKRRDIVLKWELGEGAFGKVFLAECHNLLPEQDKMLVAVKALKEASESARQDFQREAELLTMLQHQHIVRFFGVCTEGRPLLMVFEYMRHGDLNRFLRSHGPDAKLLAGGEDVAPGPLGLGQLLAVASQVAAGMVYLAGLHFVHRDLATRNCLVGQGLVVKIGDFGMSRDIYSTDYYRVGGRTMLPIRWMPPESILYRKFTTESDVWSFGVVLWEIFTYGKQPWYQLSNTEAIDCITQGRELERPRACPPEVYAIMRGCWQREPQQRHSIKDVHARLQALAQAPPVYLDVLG
Chain of Ephrin type-A receptor 2 (Homo sapiens) (P29317 whole entry): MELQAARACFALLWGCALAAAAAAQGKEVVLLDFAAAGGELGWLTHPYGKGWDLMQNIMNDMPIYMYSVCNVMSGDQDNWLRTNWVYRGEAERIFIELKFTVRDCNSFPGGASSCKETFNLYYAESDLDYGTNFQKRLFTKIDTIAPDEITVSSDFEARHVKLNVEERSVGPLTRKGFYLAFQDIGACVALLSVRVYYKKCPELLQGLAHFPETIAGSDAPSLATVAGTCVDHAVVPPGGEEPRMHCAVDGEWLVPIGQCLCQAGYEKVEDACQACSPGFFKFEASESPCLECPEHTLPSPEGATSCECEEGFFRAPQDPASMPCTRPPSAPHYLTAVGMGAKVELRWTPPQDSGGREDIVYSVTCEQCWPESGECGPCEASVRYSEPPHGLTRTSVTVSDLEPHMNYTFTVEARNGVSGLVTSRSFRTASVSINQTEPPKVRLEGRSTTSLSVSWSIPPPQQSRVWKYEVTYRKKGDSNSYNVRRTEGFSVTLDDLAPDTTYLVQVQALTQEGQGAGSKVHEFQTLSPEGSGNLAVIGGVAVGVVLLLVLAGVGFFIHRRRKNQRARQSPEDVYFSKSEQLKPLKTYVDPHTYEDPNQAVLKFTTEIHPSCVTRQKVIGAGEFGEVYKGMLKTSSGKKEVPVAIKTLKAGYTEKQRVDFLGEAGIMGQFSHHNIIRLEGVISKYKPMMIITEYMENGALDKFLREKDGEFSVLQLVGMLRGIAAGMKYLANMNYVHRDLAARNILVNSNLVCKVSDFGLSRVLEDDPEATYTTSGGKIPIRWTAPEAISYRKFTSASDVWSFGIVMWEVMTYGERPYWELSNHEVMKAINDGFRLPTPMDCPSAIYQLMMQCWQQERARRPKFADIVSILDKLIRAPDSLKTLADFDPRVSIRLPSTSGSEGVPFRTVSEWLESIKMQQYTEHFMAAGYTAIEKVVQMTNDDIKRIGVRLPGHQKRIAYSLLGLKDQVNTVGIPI
Chain of Ephrin type-A receptor 5 (Homo sapiens) (P54756 whole entry): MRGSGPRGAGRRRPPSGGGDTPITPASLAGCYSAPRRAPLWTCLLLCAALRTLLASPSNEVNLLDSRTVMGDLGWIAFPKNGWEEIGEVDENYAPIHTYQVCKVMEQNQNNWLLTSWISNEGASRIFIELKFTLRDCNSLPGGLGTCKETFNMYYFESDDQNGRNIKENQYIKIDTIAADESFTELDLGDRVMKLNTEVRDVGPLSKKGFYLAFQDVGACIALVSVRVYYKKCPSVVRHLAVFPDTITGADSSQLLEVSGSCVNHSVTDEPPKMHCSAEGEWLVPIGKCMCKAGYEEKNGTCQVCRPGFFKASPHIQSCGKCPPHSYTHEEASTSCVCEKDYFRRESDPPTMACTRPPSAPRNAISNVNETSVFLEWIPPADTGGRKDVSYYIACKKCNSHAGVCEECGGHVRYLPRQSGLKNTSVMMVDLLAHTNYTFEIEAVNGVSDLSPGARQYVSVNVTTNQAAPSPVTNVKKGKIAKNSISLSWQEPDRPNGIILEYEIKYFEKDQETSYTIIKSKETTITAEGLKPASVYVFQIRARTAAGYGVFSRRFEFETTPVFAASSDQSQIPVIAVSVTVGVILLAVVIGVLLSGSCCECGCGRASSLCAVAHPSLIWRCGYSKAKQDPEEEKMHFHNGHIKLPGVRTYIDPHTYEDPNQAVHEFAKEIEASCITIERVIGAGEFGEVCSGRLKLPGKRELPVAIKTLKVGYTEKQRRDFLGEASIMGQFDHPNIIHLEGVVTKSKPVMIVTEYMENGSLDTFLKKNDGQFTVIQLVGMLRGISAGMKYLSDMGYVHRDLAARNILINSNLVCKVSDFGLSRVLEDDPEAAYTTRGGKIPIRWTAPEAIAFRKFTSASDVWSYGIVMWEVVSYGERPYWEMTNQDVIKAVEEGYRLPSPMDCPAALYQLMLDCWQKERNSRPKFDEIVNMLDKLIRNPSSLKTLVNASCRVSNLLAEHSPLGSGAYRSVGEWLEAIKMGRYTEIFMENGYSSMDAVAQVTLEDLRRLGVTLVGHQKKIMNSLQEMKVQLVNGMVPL

Row | SMILES | inhibition [1] | residual activity [2] | residual activity [3] | residual activity [4] | residual activity [5] | residual activity [6] | residual activity [7] | residual activity [8] | residual activity [9] | residual activity [10]
1 | Cc1ccc2cc(-c3n[nH]c4ccc(NC5CCNC5)cc34)[nH]c2c1 (stereo not given) | 48% | 0% | 42% | 124% | 2% | 79% | 47% | 86% | 6% | 5%
2 | Cc1ccc2cc(-c3n[nH]c4ccc(NC5CCN(Cc6ccccc6)CC5)cc34)[nH]c2c1 | 93% | 2% | 41% | 87% | 16% | 91% | 25% | 81% | 25% | 34%
